Assays:
[1] = target: ATP-dependent translocase ABCB1 (Homo sapiens, UniProt P08183, I1115L); assay: Negative allosteric modulator activity at human P-gp I1115L mutant expressed in HEK293FT cells assessed as reversal of P-gp mediated PTX resistance by measuring sensitivity fold change incubated for 5 days by MTS assay; type: cell-based; conditions: 120 h, time 5 day
[2] = target: ATP-dependent translocase ABCB1 (Homo sapiens, UniProt P08183, Q1193F); assay: Activation of P-gp ATPase activity in human P-gp Q1193F mutant expressed in HEK293FT cell microsomes at 20 uM incubated for 1 hr in presence of ATP by Glo-luminescence based microplate reader assay (reference value: 0.41 +/- 0.06 pmol/min/microg); design: species or system Microsome
[3] = target: ATP-dependent translocase ABCB1 (Homo sapiens, UniProt P08183, Q1193N); assay: Activation of P-gp ATPase activity in human P-gp Q1193N mutant expressed in HEK293FT cell microsomes at 20 uM incubated for 1 hr in presence of ATP by Glo-luminescence based microplate reader assay (reference value: 0.34 +/- 0.05 pmol/min/microg); design: species or system Microsome
[4] = target: ATP-dependent translocase ABCB1 (Mus musculus, UniProt P06795); assay: Binding affinity to mouse P-glycoprotein expressed in Pichia pastoris assessed as stabilization of protein by measuring fluorescence at 100 uM incubated for 1 hr by Western blotting analysis
[5] = target: T1, ATP-dependent translocase ABCB1 (Homo sapiens, UniProt P08183, I1115F); assay: Negative allosteric modulator activity at human P-gp I1115F mutant expressed in HEK293FT cells assessed as fold change in intracellular doxorubicin accumulation using doxorubicin as substrate at 1 uM incubated for 150 mins by microplate reader assay relative to DMSO; type: cell-based; conditions: 2.5 h
T1 sequence (P08183 whole entry I1115F): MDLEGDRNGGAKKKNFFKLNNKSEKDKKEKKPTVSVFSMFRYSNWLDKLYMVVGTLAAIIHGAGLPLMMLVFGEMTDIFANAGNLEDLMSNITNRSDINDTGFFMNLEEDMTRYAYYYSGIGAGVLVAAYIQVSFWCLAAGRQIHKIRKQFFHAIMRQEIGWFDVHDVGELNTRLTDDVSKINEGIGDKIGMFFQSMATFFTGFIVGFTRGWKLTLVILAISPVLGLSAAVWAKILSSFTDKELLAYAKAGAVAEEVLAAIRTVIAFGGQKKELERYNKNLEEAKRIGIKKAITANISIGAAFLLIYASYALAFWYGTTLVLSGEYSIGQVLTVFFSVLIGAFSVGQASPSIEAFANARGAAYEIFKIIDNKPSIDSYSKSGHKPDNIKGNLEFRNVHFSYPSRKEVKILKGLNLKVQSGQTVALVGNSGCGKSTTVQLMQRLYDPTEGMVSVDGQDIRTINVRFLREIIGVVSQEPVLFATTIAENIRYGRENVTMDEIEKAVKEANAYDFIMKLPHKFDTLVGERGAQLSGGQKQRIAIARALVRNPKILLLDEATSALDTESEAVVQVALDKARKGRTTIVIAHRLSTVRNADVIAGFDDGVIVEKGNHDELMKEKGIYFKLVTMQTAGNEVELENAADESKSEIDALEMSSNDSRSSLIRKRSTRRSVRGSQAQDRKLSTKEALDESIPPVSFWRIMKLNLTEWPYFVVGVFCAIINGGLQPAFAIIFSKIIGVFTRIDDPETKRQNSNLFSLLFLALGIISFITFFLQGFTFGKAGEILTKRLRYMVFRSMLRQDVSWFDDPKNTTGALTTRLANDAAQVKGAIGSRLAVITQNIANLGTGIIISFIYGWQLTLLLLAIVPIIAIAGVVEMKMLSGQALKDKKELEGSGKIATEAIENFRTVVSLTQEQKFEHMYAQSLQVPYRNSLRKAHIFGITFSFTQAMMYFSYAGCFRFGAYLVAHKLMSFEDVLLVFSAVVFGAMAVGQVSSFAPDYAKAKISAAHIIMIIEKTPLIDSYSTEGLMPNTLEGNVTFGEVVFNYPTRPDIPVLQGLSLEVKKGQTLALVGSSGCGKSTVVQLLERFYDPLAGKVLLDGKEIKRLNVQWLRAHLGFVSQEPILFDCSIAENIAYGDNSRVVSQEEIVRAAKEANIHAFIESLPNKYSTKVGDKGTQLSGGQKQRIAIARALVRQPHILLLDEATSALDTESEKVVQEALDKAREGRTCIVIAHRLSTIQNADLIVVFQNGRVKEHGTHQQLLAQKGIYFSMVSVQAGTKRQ

[6] = target: ATP-dependent translocase ABCB1 (Homo sapiens, UniProt P08183, I1115W); assay: Negative allosteric modulator activity at human P-gp I1115W mutant expressed in HEK293FT cells assessed as fold change in intracellular doxorubicin accumulation using doxorubicin as substrate at 1 uM incubated for 150 mins by microplate reader assay relative to DMSO; type: cell-based; conditions: 2.5 h
[7] = target: ATP-dependent translocase ABCB1 (Homo sapiens, UniProt P08183, I1115E); assay: Negative allosteric modulator activity at human P-gp I1115E mutant expressed in HEK293FT cells assessed as fold change in intracellular doxorubicin accumulation using doxorubicin as substrate at 1 uM incubated for 150 mins by microplate reader assay relative to DMSO; type: cell-based; conditions: 2.5 h
[8] = target: T1, ATP-dependent translocase ABCB1; assay: Activation of P-gp ATPase activity in human P-gp I1115F mutant expressed in HEK293FT cell microsomes at 20 uM incubated for 1 hr in presence of ATP by Glo-luminescence based microplate reader assay (reference value: 0.21 +/- 0.05 pmol/min/microg); design: species or system Microsome
[9] = target: ATP-dependent translocase ABCB1 (Homo sapiens, UniProt P08183, G1114I); assay: Negative allosteric modulator activity at human P-gp G1114I mutant expressed in HEK293FT cells assessed as fold change in intracellular doxorubicin accumulation using doxorubicin as substrate at 1 uM incubated for 150 mins by microplate reader assay relative to DMSO; type: cell-based; conditions: 2.5 h
[10] = target: T2, ATP-dependent translocase ABCB1 (Homo sapiens, UniProt P08183, T1226A); assay: Negative allosteric modulator activity at human P-gp T1226A mutant expressed in HEK293FT cells assessed as fold change in intracellular doxorubicin accumulation using doxorubicin as substrate at 1 uM incubated for 150 mins by microplate reader assay relative to DMSO; type: cell-based; conditions: 2.5 h
T2 sequence (P08183 whole entry T1226A): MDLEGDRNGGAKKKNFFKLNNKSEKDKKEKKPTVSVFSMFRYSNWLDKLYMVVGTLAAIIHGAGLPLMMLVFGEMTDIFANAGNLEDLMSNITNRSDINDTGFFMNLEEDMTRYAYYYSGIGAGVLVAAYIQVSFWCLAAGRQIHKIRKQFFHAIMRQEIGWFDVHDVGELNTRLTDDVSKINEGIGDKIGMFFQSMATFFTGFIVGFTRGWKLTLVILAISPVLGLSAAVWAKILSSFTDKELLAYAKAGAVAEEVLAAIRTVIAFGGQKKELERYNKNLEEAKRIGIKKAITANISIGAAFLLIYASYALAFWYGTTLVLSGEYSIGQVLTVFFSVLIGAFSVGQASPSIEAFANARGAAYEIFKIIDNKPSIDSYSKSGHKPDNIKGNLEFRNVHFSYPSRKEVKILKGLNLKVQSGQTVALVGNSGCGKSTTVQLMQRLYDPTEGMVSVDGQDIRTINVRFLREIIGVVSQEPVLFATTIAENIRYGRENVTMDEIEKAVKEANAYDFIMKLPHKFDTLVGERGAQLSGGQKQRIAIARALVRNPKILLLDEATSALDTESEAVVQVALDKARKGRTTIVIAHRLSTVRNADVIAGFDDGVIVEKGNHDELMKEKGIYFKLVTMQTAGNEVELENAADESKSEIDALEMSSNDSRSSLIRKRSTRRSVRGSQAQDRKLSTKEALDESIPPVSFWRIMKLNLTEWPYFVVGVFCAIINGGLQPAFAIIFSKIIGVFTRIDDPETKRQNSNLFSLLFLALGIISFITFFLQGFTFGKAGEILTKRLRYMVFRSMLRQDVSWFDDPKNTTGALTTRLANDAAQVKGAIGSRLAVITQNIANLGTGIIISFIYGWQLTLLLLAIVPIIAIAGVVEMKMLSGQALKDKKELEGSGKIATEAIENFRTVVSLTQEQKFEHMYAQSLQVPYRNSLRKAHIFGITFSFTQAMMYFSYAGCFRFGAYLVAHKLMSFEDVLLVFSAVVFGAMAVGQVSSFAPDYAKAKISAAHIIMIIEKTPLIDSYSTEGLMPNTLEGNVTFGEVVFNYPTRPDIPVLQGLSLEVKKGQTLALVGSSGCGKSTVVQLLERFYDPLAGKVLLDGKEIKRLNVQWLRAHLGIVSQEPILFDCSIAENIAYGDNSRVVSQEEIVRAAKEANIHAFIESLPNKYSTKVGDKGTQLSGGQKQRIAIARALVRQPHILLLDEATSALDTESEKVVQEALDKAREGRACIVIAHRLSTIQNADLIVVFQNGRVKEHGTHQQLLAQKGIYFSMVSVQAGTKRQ

[11] = target: T3, ATP-dependent translocase ABCB1 (Homo sapiens, UniProt P08183, T1226F); assay: Negative allosteric modulator activity at human P-gp T1226F mutant expressed in HEK293FT cells assessed as reversal of P-gp mediated PTX resistance by measuring sensitivity fold change incubated for 5 days by MTS assay; type: cell-based; conditions: 120 h, time 5 day
T3 sequence (P08183 whole entry T1226F): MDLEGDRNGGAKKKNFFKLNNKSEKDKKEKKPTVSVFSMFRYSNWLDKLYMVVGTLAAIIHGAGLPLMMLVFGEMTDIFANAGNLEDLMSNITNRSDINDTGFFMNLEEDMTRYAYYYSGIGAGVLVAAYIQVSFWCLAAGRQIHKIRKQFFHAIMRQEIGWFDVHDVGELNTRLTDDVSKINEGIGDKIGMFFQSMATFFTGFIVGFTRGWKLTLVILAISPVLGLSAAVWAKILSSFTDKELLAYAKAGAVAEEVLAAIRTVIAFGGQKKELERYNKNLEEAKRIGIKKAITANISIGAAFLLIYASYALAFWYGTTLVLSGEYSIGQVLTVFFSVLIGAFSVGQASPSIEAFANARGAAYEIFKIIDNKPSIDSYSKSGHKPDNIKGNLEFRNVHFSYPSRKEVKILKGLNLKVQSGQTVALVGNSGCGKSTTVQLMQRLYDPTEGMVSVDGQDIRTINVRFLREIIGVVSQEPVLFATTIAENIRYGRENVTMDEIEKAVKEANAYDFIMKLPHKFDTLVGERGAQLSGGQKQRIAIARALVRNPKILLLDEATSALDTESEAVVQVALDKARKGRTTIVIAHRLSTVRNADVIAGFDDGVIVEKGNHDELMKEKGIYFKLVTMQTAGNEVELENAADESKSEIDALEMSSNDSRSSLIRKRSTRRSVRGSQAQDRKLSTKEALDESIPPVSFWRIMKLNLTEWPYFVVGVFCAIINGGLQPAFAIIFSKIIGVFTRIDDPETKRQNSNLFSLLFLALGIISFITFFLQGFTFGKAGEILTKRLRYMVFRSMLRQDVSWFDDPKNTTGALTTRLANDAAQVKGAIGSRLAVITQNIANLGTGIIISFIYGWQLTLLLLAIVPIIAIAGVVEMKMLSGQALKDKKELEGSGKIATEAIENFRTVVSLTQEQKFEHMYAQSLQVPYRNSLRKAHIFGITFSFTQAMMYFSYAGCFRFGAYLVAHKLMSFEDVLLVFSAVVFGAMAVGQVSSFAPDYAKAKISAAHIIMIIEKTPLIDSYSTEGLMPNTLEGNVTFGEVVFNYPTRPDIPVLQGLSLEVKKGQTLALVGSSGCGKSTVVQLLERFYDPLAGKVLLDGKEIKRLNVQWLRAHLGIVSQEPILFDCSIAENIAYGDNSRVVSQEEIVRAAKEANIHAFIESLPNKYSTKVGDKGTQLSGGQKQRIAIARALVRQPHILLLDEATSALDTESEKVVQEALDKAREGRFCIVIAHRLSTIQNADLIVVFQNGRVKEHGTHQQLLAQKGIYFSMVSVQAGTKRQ

[12] = target: T2, ATP-dependent translocase ABCB1; assay: Negative allosteric modulator activity at human P-gp T1226A mutant expressed in HEK293FT cells assessed as increase in intracellular doxorubicin accumulation using doxorubicin as substrate at 1 uM incubated for 150 mins by microplate reader assay (reference value: 89 +/- 4 %); type: cell-based; conditions: 2.5 h
[13] = target: ATP-dependent translocase ABCB1 (Homo sapiens, UniProt P08183, Q1193A); assay: Negative allosteric modulator activity at human P-gp Q1193A mutant expressed in HEK293FT cells assessed as reversal of P-gp mediated PTX resistance by measuring sensitivity fold change incubated for 5 days by MTS assay; type: cell-based; conditions: 120 h, time 5 day
[14] = target: T3, ATP-dependent translocase ABCB1; assay: Negative allosteric modulator activity at human P-gp T1226F mutant expressed in HEK293FT cells assessed as fold change in intracellular doxorubicin accumulation using doxorubicin as substrate at 1 uM incubated for 150 mins by microplate reader assay relative to DMSO; type: cell-based; conditions: 2.5 h
[15] = target: ATP-dependent translocase ABCB1 (Homo sapiens, UniProt P08183, T1226W); assay: Negative allosteric modulator activity at human P-gp T1226W mutant expressed in HEK293FT cells assessed as increase in intracellular doxorubicin accumulation using doxorubicin as substrate at 1 uM incubated for 150 mins by microplate reader assay (reference value: 66.7 +/- 1.5 %); type: cell-based; conditions: 2.5 h
[16] = target: ATP-dependent translocase ABCB1 (Homo sapiens, UniProt P08183, C1227A); assay: Negative allosteric modulator activity at human P-gp C1227A mutant expressed in HEK293FT cells assessed as fold change in intracellular doxorubicin accumulation using doxorubicin as substrate at 1 uM incubated for 150 mins by microplate reader assay relative to DMSO; type: cell-based; conditions: 2.5 h
[17] = target: ATP-dependent translocase ABCB1 (Homo sapiens, UniProt P08183, Q1193T); assay: Negative allosteric modulator activity at human P-gp Q1193T mutant expressed in HEK293FT cells assessed as increase in intracellular doxorubicin accumulation using doxorubicin as substrate at 1 uM incubated for 150 mins by microplate reader assay (reference value: 65.5 +/- 0.9 %); type: cell-based; conditions: 2.5 h
[18] = target: T4, ATP-dependent translocase ABCB1 (Homo sapiens, UniProt P08183); assay: Binding affinity to human P-glycoprotein expressed in LCC6MDR cells assessed as stabilization of protein by measuring fluorescence at 100 uM incubated for 1 hr by Western blotting analysis; type: cell-based
T4 sequence (P08183 whole entry): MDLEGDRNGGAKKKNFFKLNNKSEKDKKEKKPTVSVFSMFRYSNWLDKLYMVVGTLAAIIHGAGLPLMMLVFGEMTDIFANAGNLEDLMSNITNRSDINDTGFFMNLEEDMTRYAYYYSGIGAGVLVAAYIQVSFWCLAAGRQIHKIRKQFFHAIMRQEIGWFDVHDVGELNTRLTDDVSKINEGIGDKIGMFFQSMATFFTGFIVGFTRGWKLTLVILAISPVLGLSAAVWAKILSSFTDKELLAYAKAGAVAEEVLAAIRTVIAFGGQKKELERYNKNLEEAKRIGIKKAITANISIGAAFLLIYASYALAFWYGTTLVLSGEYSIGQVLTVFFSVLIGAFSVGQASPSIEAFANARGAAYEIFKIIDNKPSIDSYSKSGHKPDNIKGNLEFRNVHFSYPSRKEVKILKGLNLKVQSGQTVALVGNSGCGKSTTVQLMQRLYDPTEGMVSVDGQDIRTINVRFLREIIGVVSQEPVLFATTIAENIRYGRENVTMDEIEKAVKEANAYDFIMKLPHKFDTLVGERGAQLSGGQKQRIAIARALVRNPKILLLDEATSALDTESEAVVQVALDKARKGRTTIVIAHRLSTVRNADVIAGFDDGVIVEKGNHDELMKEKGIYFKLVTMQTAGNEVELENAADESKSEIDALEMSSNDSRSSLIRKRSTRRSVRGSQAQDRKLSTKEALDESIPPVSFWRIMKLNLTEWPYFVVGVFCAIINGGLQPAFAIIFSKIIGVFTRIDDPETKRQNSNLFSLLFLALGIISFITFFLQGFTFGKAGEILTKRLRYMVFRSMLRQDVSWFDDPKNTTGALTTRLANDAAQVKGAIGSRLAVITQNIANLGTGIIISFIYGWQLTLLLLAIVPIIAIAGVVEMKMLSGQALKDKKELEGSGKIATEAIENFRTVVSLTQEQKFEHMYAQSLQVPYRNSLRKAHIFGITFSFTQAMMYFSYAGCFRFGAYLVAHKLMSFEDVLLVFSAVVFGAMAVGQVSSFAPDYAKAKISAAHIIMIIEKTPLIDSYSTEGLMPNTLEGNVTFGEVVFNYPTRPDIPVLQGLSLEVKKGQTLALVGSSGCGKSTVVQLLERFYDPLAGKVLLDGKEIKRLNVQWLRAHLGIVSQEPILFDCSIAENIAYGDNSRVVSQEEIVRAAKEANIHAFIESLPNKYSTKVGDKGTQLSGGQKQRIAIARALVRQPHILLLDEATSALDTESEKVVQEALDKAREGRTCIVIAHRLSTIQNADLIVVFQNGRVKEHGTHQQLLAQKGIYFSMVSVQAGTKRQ

[19] = target: T4, ATP-dependent translocase ABCB1; assay: Activation of P-gp ATPase activity in wildtype human P-gp expressed in HEK293FT cell microsomes at 20 uM incubated for 1 hr in presence of ATP by Glo-luminescence based microplate reader assay (reference value: 0.32 +/- 0.02 pmol/min/microg); design: species or system Microsome
[20] = target: P-gp (ABCB1) I1115F mutant (Homo sapiens, UniProt P08183, I1115F); assay: Activation of P-gp ATPase activity in human P-gp I1115F mutant expressed in HEK293FT cell microsomes assessed as fold change of ATPase activity at 20 uM incubated for 1 hr in presence of ATP by Glo-luminescence based microplate reader assay relative to DMSO; design: species or system Microsome; conditions: read-out: FC
[21] = target: T4, ATP-dependent translocase ABCB1; assay: Negative allosteric modulator activity at P-gp in human LCC6MDR cells overexpressing P-gp assessed as reversal of P-gp mediated paclitaxel resistance activity by measuring relative fold at 1 uM incubated for 5 days by MTS assay; type: cell-based; conditions: 120 h, time 5 day

fold change (FC) [1]: 45.8 | Activity [2]: 0.45 pmol/min/µg | Activity [3]: 0.58 pmol/min/µg | Activity [4]: Not Active | fold change (FC) [5]: 1.3 | fold change (FC) [6]: 1 | fold change (FC) [7]: 1 | Activity [8]: 0.25 pmol/min/µg | fold change (FC) [9]: 1 | fold change (FC) [10]: 1 | fold change (FC) [11]: 59.4 | Activity [12]: 85.8% | fold change (FC) [13]: 4.3 | fold change (FC) [14]: 1.5 | Activity [15]: 102.4% | fold change (FC) [16]: 1.3 | Activity [17]: 85.4% | Activity [18]: Active | Activity [19]: 0.52 pmol/min/µg | fold induction at 1 h, 20 µM [20]: 1.2 | fold change (FC) [21]: 34.1
Structure (SMILES): O=c1cc(-c2ccc(OCCOCCNCc3ccccc3)cc2)oc2ccccc12

From ChEMBL document CHEMBL5338754, “Identification of Binding Sites in the Nucleotide-Binding Domain of P-Glycoprotein for a Potent and Nontoxic Modulator, the Amine-Containing Monomeric Flavonoid FM04” (J Med Chem, 2023)
